Test results taken from paper PMC9822022, “Biginelli Reaction Synthesis of Novel Multitarget-Directed Ligands with Ca^2+ Channel Blocking Ability, Cholinesterase Inhibition, Antioxidant Capacity, and Nrf2 Activation” (Molecules, 2022).
“And” between values parts separate entries of the source, which are not always exact repeats. Identical values can stand only once.

What was measured:
[1] = target: T1, hAChE (AChE from human erythrocytes) (Homo sapiens, UniProt P22303); assay: biochemical; type: biochemical; conditions: for IC50: ± SD
T1 construct: AChE from human erythrocytes; purchased Sigma Aldrich; host or cells: human erythrocytes (natural source)
Method: The inhibitory capacity of the compounds on AChE biological activity was evaluated using the spectrometric method of Ellman [27]. Acetyl- or butyrylthiocholine iodide and 5,5-dithiobis- (2-nitrobenzoic) acid (DTNB) were purchased from Sigma Aldrich. […] AChE from human erythrocytes (buffered aqueous solution, ≥500 units/mg protein (BCA), Sigma Aldrich) was diluted in 20 mM HEPES buffer, pH 8, 0.1% Triton X-100, to obtain an enzyme solution with 0.25 unit/mL enzyme activity. In the procedure, 100 µL of 0.3 mM DTNB dissolved in phosphate buffer pH 7.4 was added to the 96-well plate followed by 50 µL of test compound solution and 50 µL of enzyme (0.05 U final). After 5 min of preincubation at 25 °C, the reaction was then initiated by the injection of 50 µL of 10 mM acetyl- or butyrylthiocholine iodide solution. […] Assays were performed in singlicate during three independent tests, with a blank containing all components except acetyl- or butyrylthiocholine in order to account for non-enzymatic reaction. The reaction slopes were compared, and the percent inhibition due to the presence of test compounds was calculated by the following: 100 − (vi/v0 × 100) where vi is the rate calculated in the presence of inhibitor and v0 is the enzyme activity.

[2] = target: eqBuChE (BuChE from equine serum) (Equus caballus, UniProt P81908); assay: biochemical; conditions: ± SD
calcium channel = assay: Ca+2 channel blockade, FLIPR Calcium 6 in SH-SY5Y cells; type: cell-based; conditions: KCl/CaCl2 triggered, ± SD
Method: The Ca^+2 channel blockade capacity of compounds BIGI 4a-d and BIGI 5a-d, and nimodipine as standard, at 10 μM concentration was carried out following the usual methodology [28].
The evaluation of the calcium channel blockade of compounds BIGI 4a-d and BIGI 5a-d was carried out using FLIPR Calcium 6 indicator according to previously described protocols [35, 36]. In brief, FLIPR-loaded SH-SY5Y cells were exposed to nimodipine (10 µM, reference inhibitor), DMSO (0.1%, vehicle), or our compounds of interest (10 µM) for 10 min. […] Data were gathered in three independent experiments with eight technical replicates per experiment. Outlier detection by Grubbs’ test was performed and outlying values were excluded from further analysis.

[3] = ORAC-FL antioxidant assay; conditions: for ORAC: Trolox equivalents, mean (n = 3) ± SEM; for times less active than melatonin (ORAC): on average
Method: The antioxidant activity of compounds BIGI 4a-d and BIGI 5a-d was determined by the ORAC-FL method. [29] Their radical scavenging properties are expressed as Trolox equivalents (TE) units.
The antioxidant activity of hybrids BIGI 4a-d and BIGI 5a-d was measured by ORAC-FL assay using fluorescein as a fluorescent probe. Briefly, fluorescein and antioxidant were incubated in a black 96-well microplate (Nunc) for 15 min at 37 °C. 2,2′-Azobis(amidinopropane) dihydrochloride was then added quickly using the built-in injector of a Varioskan Flash plate reader (Thermo Scientific, Waltham, MA, USA). […] All the reactions were made in triplicate and at least three different assays were performed for each sample.

Nrf2-ARE [4] = assay: Nrf2/ARE-luciferase reporter cell assay; type: cell-based; conditions: for Induction of the Nrf2 transcriptional pathway: 24 h, 5, 10 and 50 μM (up to 100 μM for BIGI 5d); for CD (concentration required to double the specific luciferase reporter activity): 24 h treatment, means ± SEM
Method: The Nrf2-ARE-activating effect of BIGI 4b, BIGI 4d, BIGI 5b, and BIGI 5d, the most balanced compounds against cholinesterase inhibition, calcium channel blockade, and antioxidant power, was determined in vitro using a cell-based luciferase assay in the AREc32 cell line, which represents a good model for the redox-dependent activation of Nrf2 [31]. TBHQ was used as the positive control.
AREc32 cells were treated over 24 h with increasing concentrations of each compound (5, 10, 50, 100 μM) and then luciferase activity was measured. Preliminarily, the cytotoxicity of compounds against AREc32 cells were evaluated, showing no toxicity until 50 μM for compounds BIGI 4b, BIGI 4d, and BIGI 5b and until 100 μM for compound BIGI 5d.
CD values (i.e., the concentration required to double the specific activity of the luciferase reporter) were calculated to compare the relative potencies.
Treatment of stable ARE-luciferase reporter cells with the tested compounds and evaluation of the luciferase activity: The NRF2/ARE-luciferase reporter HEK293 stable cell line (Signosis, Santa Clara, CA, USA) was maintained in Dulbecco’s MEM high-glucose (DMEM) medium supplemented with 10% FBS and penicillin–streptomycin at 37 °C in 95% air/5% CO2. For treatment, the cells were seeded at a density of 2 × 10^4 per well in 96-well white microtiter plates. After 48 h, the culture medium was replaced with fresh DMEM supplemented with 0.1% FBS containing different concentrations of the tested compounds or DMSO (0.1%) in duplicate. Luciferase activity was measured after 24 h of treatment using the Bright-Glo luciferase assay system (Promega) according to the manufacturer’s instructions.

AREc32 cells = assay: Cytotoxicity against reporter cells (MTT); type: cell-based
Method: […]. Preliminarily, the cytotoxicity of compounds against AREc32 cells were evaluated, showing no toxicity until 50 μM for compounds BIGI 4b, BIGI 4d, and BIGI 5b and until 100 μM for compound BIGI 5d.
Treatment of stable ARE-luciferase reporter cells with the tested compounds and evaluation of the cellular viability: The NRF2/ARE-luciferase reporter HEK293 stable cell line was seeded and treated as described for the luciferase activity determination, except that transparent culture plates were used instead of white plates. After 24 h of incubation with the tested compounds, the percent of cell viability was measured using MTT assay.

Nrf2-ARE [5] = system: Nrf2-ARE; parameters: method as in PMID 31838896; conditions: cited from earlier work

T1 sequence (P22303 other isoform, or with tags, fused parts or gaps): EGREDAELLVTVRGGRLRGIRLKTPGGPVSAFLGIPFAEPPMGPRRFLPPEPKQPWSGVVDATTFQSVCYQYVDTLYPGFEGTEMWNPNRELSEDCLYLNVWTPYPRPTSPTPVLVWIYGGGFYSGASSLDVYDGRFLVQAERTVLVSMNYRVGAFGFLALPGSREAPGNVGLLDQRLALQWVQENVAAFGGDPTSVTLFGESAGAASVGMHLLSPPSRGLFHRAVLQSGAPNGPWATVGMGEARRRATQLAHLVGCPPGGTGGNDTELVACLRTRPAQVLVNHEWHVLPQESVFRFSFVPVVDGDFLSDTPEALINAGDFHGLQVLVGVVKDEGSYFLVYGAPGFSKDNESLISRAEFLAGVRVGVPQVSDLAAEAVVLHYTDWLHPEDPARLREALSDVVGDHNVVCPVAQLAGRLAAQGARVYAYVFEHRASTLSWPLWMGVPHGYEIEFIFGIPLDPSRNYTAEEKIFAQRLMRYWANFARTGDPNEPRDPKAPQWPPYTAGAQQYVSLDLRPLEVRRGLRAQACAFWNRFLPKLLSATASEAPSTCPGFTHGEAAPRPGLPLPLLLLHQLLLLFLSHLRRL
Sequence of eqBuChE (BuChE from equine serum) (P81908 whole entry): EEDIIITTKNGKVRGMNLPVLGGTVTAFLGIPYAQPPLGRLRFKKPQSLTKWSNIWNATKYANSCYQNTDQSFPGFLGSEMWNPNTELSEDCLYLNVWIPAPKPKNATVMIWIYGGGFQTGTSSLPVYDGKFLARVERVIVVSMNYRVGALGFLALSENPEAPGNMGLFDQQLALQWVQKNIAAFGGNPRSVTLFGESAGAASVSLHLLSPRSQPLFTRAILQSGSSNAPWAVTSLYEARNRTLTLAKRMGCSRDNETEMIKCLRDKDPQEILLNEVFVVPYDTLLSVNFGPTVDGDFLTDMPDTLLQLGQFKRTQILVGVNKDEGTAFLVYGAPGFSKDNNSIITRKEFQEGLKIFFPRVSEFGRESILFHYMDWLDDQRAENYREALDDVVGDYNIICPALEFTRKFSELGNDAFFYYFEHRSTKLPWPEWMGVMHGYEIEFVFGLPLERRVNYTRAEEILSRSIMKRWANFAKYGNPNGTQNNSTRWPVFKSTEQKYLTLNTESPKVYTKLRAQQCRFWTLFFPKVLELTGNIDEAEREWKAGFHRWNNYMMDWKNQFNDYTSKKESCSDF

Structure (SMILES) | fold less active than Donepezil (hAChE) [1] | IC50 [1] | IC50 [2] | Calcium Antagonism (% Inhibition at 10 μM) (calcium channel) | ORAC [3] | times less active than melatonin (ORAC) [3] | Induction of the Nrf2 transcriptional pathway (Nrf2-ARE [4]) | CD (concentration required to double the specific luciferase reporter activity) (Nrf2-ARE [4]) | Cytotoxicity: no toxicity until concentration (AREc32 cells) | CD (Nrf2-ARE [5]) | fold less active than TBHQ (CD) (Nrf2-ARE [4]) | times more active than melatonin (CD) (Nrf2-ARE [4]) | CD (concentration required to double the specific luciferase reporter activity) (Nrf2-ARE [4]; listed as 5d)
C#CCOc1ccc(C2NC(=O)N(CCC3CCN(Cc4ccccc4)CC3)C(C)=C2C(=O)OCC)cc1 (stereo not shown) [BIGI 4b, Ethyl 1-(2-(1-benzylpiperidin-4-yl)ethyl)-6-methyl-2-oxo-4-(4-(prop-2-yn-1-yloxy)phenyl)-1,2,3,4-tetrahydropyrimidine-5-carboxylate] | 27 fold | 0.342 ± 0.064 µM | 4.78 ± 0.58 µM | 67 ± 10% | 1.60 TE and 1.60 ± 0.15 TE | ~1.4 times | able to successfully induce the Nrf2 transcriptional pathway | 7.1 µM and 7.1 ± 0.8 µM | 50 µM | – | – | – | –
C#CCCOc1ccc(C2NC(=O)N(CCC3CCN(Cc4ccccc4)CC3)C(C)=C2C(=O)OCC)cc1 (stereo not shown) [BIGI 4d, Ethyl 1-(2-(1-benzylpiperidin-4-yl)ethyl)-4-(4-(but-3-yn-1-yloxy)phenyl)-6-methyl-2-oxo-1,2,3,4-tetrahydropyrimidine-5-carboxylate] | – | 0.462 ± 0.04 µM | 6.63 ± 0.71 µM | 50 ± 13% | 1.85 TE and 1.85 ± 0.16 TE | ~1.4 times | able to successfully induce the Nrf2 transcriptional pathway | 7.7 µM and 7.7 ± 2.9 µM | 50 µM | – | – | – | –
C#CCOc1ccc(C2NC(=S)N(CCC3CCN(Cc4ccccc4)CC3)C(C)=C2C(=O)OCC)cc1 (stereo not shown) [BIGI 5b, Ethyl 1-(2-(1-benzylpiperidin-4-yl)ethyl)-6-methyl-4-(4-(prop-2-yn-1-yloxy)phenyl)-2-thioxo-1,2,3,4-tetrahydropyrimidine-5-carboxylate] | 27 fold | 0.352 ± 0.015 µM | 5.43 ± 0.24 µM | 74 ± 16% | 1.41 ± 0.06 TE | – | able to successfully induce the Nrf2 transcriptional pathway | 13.5 µM and 13.5 ± 9.1 µM | 50 µM | – | – | – | –
CC(C)(C)c1cc(O)ccc1O [TBHQ, reference compound] | – | – | – | – | – | – | – | 0.8 µM and 0.8 ± 0.2 µM | – | – | – | – | –
COc1ccc2[nH]cc(CCNC(C)=O)c2c1 [Melatonin] | – | – | – | – | – | – | – | – | – | 60 µM | – | – | –
C#CCOc1ccc(C2NC(=S)N(CC3CCN(Cc4ccccc4)CC3)C(C)=C2C(=O)OCC)cc1 (stereo not shown) [BIGI 5a, Ethyl 1-((1-benzylpiperidin-4-yl)methyl)-6-methyl-4-(4-(prop-2-yn-1-yloxy)phenyl)-2-thioxo-1,2,3,4-tetrahydropyrimidine-5-carboxylate] | – | > 1 µM | 7.64 ± 0.79 µM | 46 ± 18% | 1.35 ± 0.04 TE | – | – | – | – | – | – | – | –
COCCOC(=O)C1=C(C)NC(C)=C(C(=O)OC(C)C)C1c1cccc([N+](=O)[O-])c1 (stereo not shown) [Nimodipine, reference compound] | – | – | – | 50± 10% | – | – | – | – | – | – | – | – | –
C#CCCOc1ccc(C2NC(=S)N(CC3CCN(Cc4ccccc4)CC3)C(C)=C2C(=O)OCC)cc1 (stereo not shown) [BIGI 5c, Ethyl 1-((1-benzylpiperidin-4-yl)methyl)-4-(4-(but-3-yn-1-yloxy)phenyl)-6-methyl-2-thioxo-1,2,3,4-tetrahydropyrimidine-5-carboxylate] | – | > 1 µM | 33.8 ± 7.89 µM | 63 ± 18% | 1.75 TE and 1.75 ± 0.06 TE | ~1.4 times | – | – | – | – | – | – | –
C#CCOc1ccc(C2NC(=O)N(CC3CCN(Cc4ccccc4)CC3)C(C)=C2C(=O)OCC)cc1 (stereo not shown) [BIGI 4a, Ethyl 1-((1-benzylpiperidin-4-yl)methyl)-6-methyl-2-oxo-4-(4-(prop-2-yn-1-yloxy)phenyl)-1,2,3,4-tetrahydropyrimidine-5-carboxylate] | – | > 1 µM | 31.2 ± 1.7 µM | 45 ± 11% | 1.44 ± 0.06 TE | – | – | – | – | – | – | – | –
C#CCCOc1ccc(C2NC(=S)N(CCC3CCN(Cc4ccccc4)CC3)C(C)=C2C(=O)OCC)cc1 (stereo not shown) [BIGI 5d, Ethyl 1-(2-(1-benzylpiperidin-4-yl)ethyl)-4-(4-(but-3-yn-1-yloxy)phenyl)-6-methyl-2-thioxo-1,2,3,4-tetrahydropyrimidine-5-carboxylate] | – | 1.271 ± 0.005 µM | 8.54 ± 0.71 µM | 68 ± 12% | 1.57 ± 0.13 TE | – | able to successfully induce the Nrf2 transcriptional pathway | 33.4 ± 4.8 µM | 100 µM | – | 42 fold | 2 times | 33.4 µM
C#CCCOc1ccc(C2NC(=O)N(CC3CCN(Cc4ccccc4)CC3)C(C)=C2C(=O)OCC)cc1 (stereo not shown) [BIGI 4c, Ethyl 1-((1-benzylpiperidin-4-yl)methyl)-4-(4-(but-3-yn-1-yloxy)phenyl)-6-methyl-2-oxo-1,2,3,4-tetrahydropyrimidine-5-carboxylate] | – | > 1 µM | > 10 µM | 40± 13% | 0.98 ± 0.03 TE | – | – | – | – | – | – | – | –
